Earlier results as cited in publication PMC9186412, “Rational Framework for the Design of Trp- and Arg-Rich Peptide Antibiotics Against Multidrug-Resistant Bacteria” (Frontiers in Microbiology, 2022).

Tested on: CDC AR isolates
Design: key: S (green), susceptible; I (blue), intermediate; R (red), resistant
Details: Acinetobacter baumannii AB273, CDC AR isolate; data provided by the CDC; ref CDC; cited from earlier work
Excerpt: Supplement Table_3.XLSX, sheet "CDC AR isolates profiles" | column: G(-) strains

SMILES	Antibiotic susceptibility profile
C[C@@H](O)[C@H]1C(=O)N2C(C(=O)O)=C(SCCN=CN)C[C@H]12 [Imipenem]	R
CN(C)c1ccc(O)c2c1C[C@H]1C[C@H]3[C@H](N(C)C)C(O)=C(C(N)=O)C(=O)[C@@]3(O)C(O)=C1C2=O [Minocycline]	I

Same assay, conditions: Acinetobacter baumannii AB274, CDC AR isolate; data provided by the CDC; ref CDC; cited from earlier work

SMILES	Antibiotic susceptibility profile
C[C@@H](O)[C@H]1C(=O)N2C(C(=O)O)=C(SCCN=CN)C[C@H]12 [Imipenem]	R
CN(C)c1ccc(O)c2c1C[C@H]1C[C@H]3[C@H](N(C)C)C(O)=C(C(N)=O)C(=O)[C@@]3(O)C(O)=C1C2=O [Minocycline]	I

Same assay, conditions: Acinetobacter baumannii AB275, CDC AR isolate; data provided by the CDC; ref CDC; cited from earlier work

SMILES	Antibiotic susceptibility profile
C[C@@H](O)[C@H]1C(=O)N2C(C(=O)O)=C(SCCN=CN)C[C@H]12 [Imipenem]	R
CN(C)c1ccc(O)c2c1C[C@H]1C[C@H]3[C@H](N(C)C)C(O)=C(C(N)=O)C(=O)[C@@]3(O)C(O)=C1C2=O [Minocycline]	I

Same assay, conditions: Acinetobacter baumannii AB276, CDC AR isolate; data provided by the CDC; ref CDC; cited from earlier work

SMILES	Antibiotic susceptibility profile
C[C@@H](O)[C@H]1C(=O)N2C(C(=O)O)=C(SCCN=CN)C[C@H]12 [Imipenem]	S
CN(C)c1ccc(O)c2c1C[C@H]1C[C@H]3[C@H](N(C)C)C(O)=C(C(N)=O)C(=O)[C@@]3(O)C(O)=C1C2=O [Minocycline]	S

Same assay, conditions: Enterobacter cloacae E62, CDC AR isolate; data provided by the CDC; ref CDC; cited from earlier work

SMILES	Antibiotic susceptibility profile
C[C@@H](O)[C@H]1C(=O)N2C(C(=O)O)=C(S[C@@H]3CN[C@H](C(=O)Nc4cccc(C(=O)O)c4)C3)[C@H](C)[C@H]12 [Ertapenem]	S
CN(C)c1cc(NC(=O)CNC(C)(C)C)c(O)c2c1C[C@H]1C[C@H]3[C@H](N(C)C)C(O)=C(C(N)=O)C(=O)[C@@]3(O)C(O)=C1C2=O [Tigecycline]	S
C[C@@H](O)[C@H]1C(=O)N2C(C(=O)O)=C(SCCN=CN)C[C@H]12 [Imipenem]	S

Same assay, conditions: Enterobacter cloacae E544, CDC AR isolate; data provided by the CDC; ref CDC; cited from earlier work

SMILES	Antibiotic susceptibility profile
CN(C)c1cc(NC(=O)CNC(C)(C)C)c(O)c2c1C[C@H]1C[C@H]3[C@H](N(C)C)C(O)=C(C(N)=O)C(=O)[C@@]3(O)C(O)=C1C2=O [Tigecycline]	R
C[C@@H](O)[C@H]1C(=O)N2C(C(=O)O)=C(SCCN=CN)C[C@H]12 [Imipenem]	R

Same assay, conditions: Enterobacter cloacae E545, CDC AR isolate; data provided by the CDC; ref CDC; cited from earlier work

SMILES	Antibiotic susceptibility profile
C[C@@H](O)[C@H]1C(=O)N2C(C(=O)O)=C(S[C@@H]3CN[C@H](C(=O)Nc4cccc(C(=O)O)c4)C3)[C@H](C)[C@H]12 [Ertapenem]	S
CN(C)c1cc(NC(=O)CNC(C)(C)C)c(O)c2c1C[C@H]1C[C@H]3[C@H](N(C)C)C(O)=C(C(N)=O)C(=O)[C@@]3(O)C(O)=C1C2=O [Tigecycline]	R
C[C@@H](O)[C@H]1C(=O)N2C(C(=O)O)=C(SCCN=CN)C[C@H]12 [Imipenem]	I

Same assay, conditions: Enterobacter cloacae E546, CDC AR isolate; data provided by the CDC; ref CDC; cited from earlier work

SMILES	Antibiotic susceptibility profile
CN(C)c1cc(NC(=O)CNC(C)(C)C)c(O)c2c1C[C@H]1C[C@H]3[C@H](N(C)C)C(O)=C(C(N)=O)C(=O)[C@@]3(O)C(O)=C1C2=O [Tigecycline]	S
C[C@@H](O)[C@H]1C(=O)N2C(C(=O)O)=C(SCCN=CN)C[C@H]12 [Imipenem]	R

Same assay, conditions: Escherichia coli EC541, CDC AR isolate; data provided by the CDC; ref CDC; cited from earlier work

SMILES	Antibiotic susceptibility profile
C[C@@H](O)[C@H]1C(=O)N2C(C(=O)O)=C(S[C@@H]3CN[C@H](C(=O)Nc4cccc(C(=O)O)c4)C3)[C@H](C)[C@H]12 [Ertapenem]	I
C[C@H]1[C@H](NC(=O)/C(=N\OC(C)(C)C(=O)O)c2csc(N)n2)C(=O)N1S(=O)(=O)O [Azreonam]	R
CN(C)c1cc(NC(=O)CNC(C)(C)C)c(O)c2c1C[C@H]1C[C@H]3[C@H](N(C)C)C(O)=C(C(N)=O)C(=O)[C@@]3(O)C(O)=C1C2=O [Tigecycline]	S
C[C@@H](O)[C@H]1C(=O)N2C(C(=O)O)=C(SCCN=CN)C[C@H]12 [Imipenem]	I

Same assay, conditions: Escherichia coli EC543, CDC AR isolate; data provided by the CDC; ref CDC; cited from earlier work

SMILES	Antibiotic susceptibility profile
C[C@@H](O)[C@H]1C(=O)N2C(C(=O)O)=C(S[C@@H]3CN[C@H](C(=O)Nc4cccc(C(=O)O)c4)C3)[C@H](C)[C@H]12 [Ertapenem]	R
C[C@H]1[C@H](NC(=O)/C(=N\OC(C)(C)C(=O)O)c2csc(N)n2)C(=O)N1S(=O)(=O)O [Azreonam]	R
CN(C)c1cc(NC(=O)CNC(C)(C)C)c(O)c2c1C[C@H]1C[C@H]3[C@H](N(C)C)C(O)=C(C(N)=O)C(=O)[C@@]3(O)C(O)=C1C2=O [Tigecycline]	S
C[C@@H](O)[C@H]1C(=O)N2C(C(=O)O)=C(SCCN=CN)C[C@H]12 [Imipenem]	S

Same assay, conditions: Escherichia coli EC544, CDC AR isolate; data provided by the CDC; ref CDC; cited from earlier work

SMILES	Antibiotic susceptibility profile
C[C@@H](O)[C@H]1C(=O)N2C(C(=O)O)=C(S[C@@H]3CN[C@H](C(=O)Nc4cccc(C(=O)O)c4)C3)[C@H](C)[C@H]12 [Ertapenem]	R
C[C@H]1[C@H](NC(=O)/C(=N\OC(C)(C)C(=O)O)c2csc(N)n2)C(=O)N1S(=O)(=O)O [Azreonam]	R
CN(C)c1cc(NC(=O)CNC(C)(C)C)c(O)c2c1C[C@H]1C[C@H]3[C@H](N(C)C)C(O)=C(C(N)=O)C(=O)[C@@]3(O)C(O)=C1C2=O [Tigecycline]	S
C[C@@H](O)[C@H]1C(=O)N2C(C(=O)O)=C(SCCN=CN)C[C@H]12 [Imipenem]	R

Same assay, conditions: Escherichia coli EC549, CDC AR isolate; data provided by the CDC; ref CDC; cited from earlier work

SMILES	Antibiotic susceptibility profile
C[C@@H](O)[C@H]1C(=O)N2C(C(=O)O)=C(S[C@@H]3CN[C@H](C(=O)Nc4cccc(C(=O)O)c4)C3)[C@H](C)[C@H]12 [Ertapenem]	R
C[C@H]1[C@H](NC(=O)/C(=N\OC(C)(C)C(=O)O)c2csc(N)n2)C(=O)N1S(=O)(=O)O [Azreonam]	R
CN(C)c1cc(NC(=O)CNC(C)(C)C)c(O)c2c1C[C@H]1C[C@H]3[C@H](N(C)C)C(O)=C(C(N)=O)C(=O)[C@@]3(O)C(O)=C1C2=O [Tigecycline]	S
C[C@@H](O)[C@H]1C(=O)N2C(C(=O)O)=C(SCCN=CN)C[C@H]12 [Imipenem]	I

Same assay, conditions: Klebsiella pneumoniae KP542, CDC AR isolate; data provided by the CDC; ref CDC; cited from earlier work

SMILES	Antibiotic susceptibility profile
C[C@@H](O)[C@H]1C(=O)N2C(C(=O)O)=C(S[C@@H]3CN[C@H](C(=O)Nc4cccc(C(=O)O)c4)C3)[C@H](C)[C@H]12 [Ertapenem]	R
C[C@H]1[C@H](NC(=O)/C(=N\OC(C)(C)C(=O)O)c2csc(N)n2)C(=O)N1S(=O)(=O)O [Azreonam]	R
CN(C)c1cc(NC(=O)CNC(C)(C)C)c(O)c2c1C[C@H]1C[C@H]3[C@H](N(C)C)C(O)=C(C(N)=O)C(=O)[C@@]3(O)C(O)=C1C2=O [Tigecycline]	S
CN(C)c1cc(CNCC(C)(C)C)c(O)c2c1C[C@H]1C[C@H]3[C@H](N(C)C)C(O)=C(C(N)=O)C(=O)[C@@]3(O)C(O)=C1C2=O [Omadacycline]	R
C[C@@H](O)[C@H]1C(=O)N2C(C(=O)O)=C(SCCN=CN)C[C@H]12 [Imipenem]	I

Same assay, conditions: Klebsiella pneumoniae KP548, CDC AR isolate; data provided by the CDC; ref CDC; cited from earlier work

SMILES	Antibiotic susceptibility profile
C[C@@H](O)[C@H]1C(=O)N2C(C(=O)O)=C(S[C@@H]3CN[C@H](C(=O)Nc4cccc(C(=O)O)c4)C3)[C@H](C)[C@H]12 [Ertapenem]	R
C[C@H]1[C@H](NC(=O)/C(=N\OC(C)(C)C(=O)O)c2csc(N)n2)C(=O)N1S(=O)(=O)O [Azreonam]	R
CN(C)c1cc(NC(=O)CNC(C)(C)C)c(O)c2c1C[C@H]1C[C@H]3[C@H](N(C)C)C(O)=C(C(N)=O)C(=O)[C@@]3(O)C(O)=C1C2=O [Tigecycline]	I
CN(C)c1cc(CNCC(C)(C)C)c(O)c2c1C[C@H]1C[C@H]3[C@H](N(C)C)C(O)=C(C(N)=O)C(=O)[C@@]3(O)C(O)=C1C2=O [Omadacycline]	R
C[C@@H](O)[C@H]1C(=O)N2C(C(=O)O)=C(SCCN=CN)C[C@H]12 [Imipenem]	R

Same assay, conditions: Klebsiella pneumoniae KP550, CDC AR isolate; data provided by the CDC; ref CDC; cited from earlier work

SMILES	Antibiotic susceptibility profile
C[C@@H](O)[C@H]1C(=O)N2C(C(=O)O)=C(S[C@@H]3CN[C@H](C(=O)Nc4cccc(C(=O)O)c4)C3)[C@H](C)[C@H]12 [Ertapenem]	R
C[C@H]1[C@H](NC(=O)/C(=N\OC(C)(C)C(=O)O)c2csc(N)n2)C(=O)N1S(=O)(=O)O [Azreonam]	R
CN(C)c1cc(NC(=O)CNC(C)(C)C)c(O)c2c1C[C@H]1C[C@H]3[C@H](N(C)C)C(O)=C(C(N)=O)C(=O)[C@@]3(O)C(O)=C1C2=O [Tigecycline]	S
CN(C)c1cc(CNCC(C)(C)C)c(O)c2c1C[C@H]1C[C@H]3[C@H](N(C)C)C(O)=C(C(N)=O)C(=O)[C@@]3(O)C(O)=C1C2=O [Omadacycline]	R
C[C@@H](O)[C@H]1C(=O)N2C(C(=O)O)=C(SCCN=CN)C[C@H]12 [Imipenem]	R

Same assay, conditions: Klebsiella pneumoniae KP552, CDC AR isolate; data provided by the CDC; ref CDC; cited from earlier work

SMILES	Antibiotic susceptibility profile
C[C@@H](O)[C@H]1C(=O)N2C(C(=O)O)=C(S[C@@H]3CN[C@H](C(=O)Nc4cccc(C(=O)O)c4)C3)[C@H](C)[C@H]12 [Ertapenem]	R
C[C@H]1[C@H](NC(=O)/C(=N\OC(C)(C)C(=O)O)c2csc(N)n2)C(=O)N1S(=O)(=O)O [Azreonam]	R
CN(C)c1cc(NC(=O)CNC(C)(C)C)c(O)c2c1C[C@H]1C[C@H]3[C@H](N(C)C)C(O)=C(C(N)=O)C(=O)[C@@]3(O)C(O)=C1C2=O [Tigecycline]	S
CN(C)c1cc(CNCC(C)(C)C)c(O)c2c1C[C@H]1C[C@H]3[C@H](N(C)C)C(O)=C(C(N)=O)C(=O)[C@@]3(O)C(O)=C1C2=O [Omadacycline]	S
C[C@@H](O)[C@H]1C(=O)N2C(C(=O)O)=C(SCCN=CN)C[C@H]12 [Imipenem]	R

Same assay, conditions: Pseudomonas aeruginosa PA229, CDC AR isolate; data provided by the CDC; ref CDC; cited from earlier work

SMILES	Antibiotic susceptibility profile
C[C@H]1[C@H](NC(=O)/C(=N\OC(C)(C)C(=O)O)c2csc(N)n2)C(=O)N1S(=O)(=O)O [Azreonam]	R
C[C@@H](O)[C@H]1C(=O)N2C(C(=O)O)=C(SCCN=CN)C[C@H]12 [Imipenem]	R

Same assay, conditions: Pseudomonas aeruginosa PA230, CDC AR isolate; data provided by the CDC; ref CDC; cited from earlier work

SMILES	Antibiotic susceptibility profile
C[C@H]1[C@H](NC(=O)/C(=N\OC(C)(C)C(=O)O)c2csc(N)n2)C(=O)N1S(=O)(=O)O [Azreonam]	S
C[C@@H](O)[C@H]1C(=O)N2C(C(=O)O)=C(SCCN=CN)C[C@H]12 [Imipenem]	R

Same assay, conditions: Pseudomonas aeruginosa PA231, CDC AR isolate; data provided by the CDC; ref CDC; cited from earlier work

SMILES	Antibiotic susceptibility profile
C[C@H]1[C@H](NC(=O)/C(=N\OC(C)(C)C(=O)O)c2csc(N)n2)C(=O)N1S(=O)(=O)O [Azreonam]	R
C[C@@H](O)[C@H]1C(=O)N2C(C(=O)O)=C(SCCN=CN)C[C@H]12 [Imipenem]	R

Same assay, conditions: Pseudomonas aeruginosa PA232, CDC AR isolate; data provided by the CDC; ref CDC; cited from earlier work

SMILES	Antibiotic susceptibility profile
C[C@H]1[C@H](NC(=O)/C(=N\OC(C)(C)C(=O)O)c2csc(N)n2)C(=O)N1S(=O)(=O)O [Azreonam]	S
C[C@@H](O)[C@H]1C(=O)N2C(C(=O)O)=C(SCCN=CN)C[C@H]12 [Imipenem]	R

Same assay, conditions: Pseudomonas aeruginosa PA239, CDC AR isolate; data provided by the CDC; ref CDC; cited from earlier work

SMILES	Antibiotic susceptibility profile
C[C@H]1[C@H](NC(=O)/C(=N\OC(C)(C)C(=O)O)c2csc(N)n2)C(=O)N1S(=O)(=O)O [Azreonam]	R
C[C@@H](O)[C@H]1C(=O)N2C(C(=O)O)=C(SCCN=CN)C[C@H]12 [Imipenem]	R

Same assay, conditions: Staphylococcus aureus SA561, CDC AR isolate; data provided by the CDC; ref CDC; cited from earlier work

SMILES	Antibiotic susceptibility profile
C/C(=C\C(=O)OCCCCCCCCC(=O)O)C[C@@H]1OC[C@H](C[C@@H]2O[C@H]2[C@@H](C)[C@H](C)O)[C@@H](O)[C@H]1O [Mupirocin]	R
